We go through eleven compounds from patent US5827876A, “Inhibition of bone loss by 3-(4-acrylamidobenzoyl) benzo[b]-thiophenes” (priority 1997, dated 1998).

Molecules are shown by their SMILES. Where two headings read alike, the source gives them in different places.

In series [1] the test system is Ishikawa cells. Description: Ishikawa Cell Alkaline Phosphatase Assay. The series is classed as cell-based. The following applies: Homo sapiens, reference compounds, estrogenic activity, 48 h treatment, 95% C.I. given in parentheses, read-out: ED50 values (95% C.I.), alkaline phosphatase activity. As to the method: Ishikawa Cell Alkaline Phosphatase Assay
Cell maintenance and treatment:
Ishikawa cells are maintained in DMEM/F12 (50%:50%) containing phenol red+10% fetal bovine serum. The medium also is supplemented with 2 mM Glutamax, 1% Pen/Strep and 1 mM sodium pyruvate. Five days prior to the beginning of an experiment (treatment of cells) the medium is changed to phenol red-free DMEM/F12+10% dextran coated charcoal stripped serum. On the day before treatment, cells are harvested using 0.5% trypsin/EDTA and plated at a density of 5×10^4 cells/well in 96-well tissue culture plates. […] Cells are treated for 48 hours prior to assay. […] Sample size for each compound dose is n=8.
Alkaline Phosphatase assay:
At the end of 48 hours the media is aspirated and cells are washed three times with phosphate buffered saline (PBS). 50 μl of lysis buffer (0.1M Tris-HCl, pH 9.8, 0.2% Triton X-100) is added to each well. Plates are placed at -80° C. for minimally 15 minutes. Plates are rapidly thawed at 37° C. followed by the addition of 150 μl of 0.1M Tris-HCl, pH 9.8, containing 4 mM para-nitrophenylphosphate to each well (final concentration is 3 mM pNPP).
Absorbance and slope calculations are done using the KineticCalc Application program (Bio-Tek Instruments, Inc., Winooski, Vt.). Results are expressed as the mean ±S.D. of the rate of enzyme reaction (slope) averaged over the linear portion of the kinetic reaction curve (optical density readings every 5 minutes for 30 minutes absorbance reading).

The target of series [2] is T1, estrogen receptor (Homo sapiens, UniProt P03372).
T1 sequence (P03372 1-595): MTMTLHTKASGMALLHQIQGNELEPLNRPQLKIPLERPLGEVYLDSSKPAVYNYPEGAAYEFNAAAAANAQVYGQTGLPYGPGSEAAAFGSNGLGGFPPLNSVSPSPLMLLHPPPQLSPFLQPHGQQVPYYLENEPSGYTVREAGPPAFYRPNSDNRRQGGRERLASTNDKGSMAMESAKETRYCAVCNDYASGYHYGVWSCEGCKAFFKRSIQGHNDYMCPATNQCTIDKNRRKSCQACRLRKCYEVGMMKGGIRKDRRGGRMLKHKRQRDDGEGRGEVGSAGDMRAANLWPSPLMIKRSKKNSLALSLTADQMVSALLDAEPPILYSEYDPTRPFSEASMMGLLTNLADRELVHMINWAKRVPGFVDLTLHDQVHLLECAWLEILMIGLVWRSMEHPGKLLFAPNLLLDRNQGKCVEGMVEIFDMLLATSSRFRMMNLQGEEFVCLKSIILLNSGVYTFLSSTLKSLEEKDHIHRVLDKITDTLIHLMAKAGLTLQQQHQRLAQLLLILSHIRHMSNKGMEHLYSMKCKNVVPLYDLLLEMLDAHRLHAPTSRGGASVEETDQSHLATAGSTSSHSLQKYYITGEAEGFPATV
Description: Estrogen Receptor Binding/Competition Assay ([3H]17β-estradiol displacement, CHO cytosol).

Series [3] relates to ovariectomized rats. Particulars: cited from earlier work.
The conditions of series [4]: background statement, cited from earlier work.
Setting [5] is: ovariectomized rats, Black et al. 1994.

In the case of `C[C@]12CC[C@@H]3c4ccc(O)cc4CC[C@H]3[C@@H]1CC[C@H]2O` [17α-estradiol], the EC50 in series [1] stood at 1.42 nM.
Consider `C[C@]12CC[C@@H]3c4ccc(O)cc4CC[C@H]3[C@@H]1CC[C@@H]2O` [17β-estradiol], for which, in series [1], the EC50 was 0.03 nM.
For the compound `CN(C)C(=O)/C=C/c1ccc(C(=O)c2c(-c3ccc(O)cc3)sc3cc(O)ccc23)cc1` [Example 3, (E)-3-{4-[6-Hydroxy-2-(4-hydroxyphenyl)benzo[b]thiophene-3-carbonyl]phenyl}-N,N-dimethylacrylamide], the IC50 in series [2] amounted to 150 nM.
On to `CC(C)(C)NC(=O)/C=C/c1ccc(C(=O)c2c(-c3ccc(O)cc3)sc3cc(O)ccc23)cc1` [Example 4, (E)-N-t-Butyl-3-{4-[6-hydroxy-2-(4-hydroxyphenyl)benzo[b]thiophene-3-carbonyl]phenyl}acrylamide], for which, in series [2], the IC50 is 100 nM.
With `CCN(CC)C(=O)/C=C/c1ccc(C(=O)c2c(-c3ccc(O)cc3)sc3cc(O)ccc23)cc1` [Example 5, (E)-N,N-Diethyl-3-{4-[6-hydroxy-2-(4-hydroxyphenyl)benzo[b]thiophene-3-carbonyl]phenyl}acrylamide], the 50% inhibitory concentration (IC50) in series [2] is 100 nM.
`O=C(c1ccc(/C=C/C(=O)N2CCOCC2)cc1)c1c(-c2ccc(O)cc2)sc2cc(O)ccc12` [Example 6, (E)-3-{4-[6-Hydroxy-2-(4 hydroxyphenyl)benzo[b]thiophene-3-carbonyl]-phenyl}-1-(morpholin-4-yl)prop-2-en-1-one] gave an IC50 in series [2] of 170 nM. This IC50 lies about 1.7-fold higher than the previous one.
`O=C(c1ccc(/C=C/C(=O)N2CCCCC2)cc1)c1c(-c2ccc(O)cc2)sc2cc(O)ccc12` [Example 7, (E)-3-{4-[6-Hydroxy-2-(4-hydroxyphenyl)benzo[b]thiophene-3-carbonyl]phenyl}-1-(piperidinyl)prop-en-1-one] came in with an IC50 in series [2] of 70 nM.
As to `C[C@]12CC[C@@H]3c4ccc(O)cc4CC[C@H]3[C@@H]1C[C@@H](O)[C@@H]2O` [estriol], in series [1], the EC50 worked out at 0.13 nM.
On to `C[C@]12CC[C@@H]3c4ccc(O)cc4CC[C@H]3[C@@H]1CCC2=O` [estrone], for which, in series [1], the EC50 amounted to 0.36 nM.
As to `O=C(c1ccc(OCCN2CCCCC2)cc1)c1c(-c2ccc(O)cc2)sc2cc(O)ccc12` [raloxifene], in series [3] (setting [5]), the “effect on bone loss” value is on record as “prevents bone loss”, the “effect on serum cholesterol” value is “reduces serum cholesterol” and the uterine hypertrophy result is “without causing uterine hypertrophy”. Besides, in series [3] (species not given), the “effect on bone loss” value is given as “reduce bone loss” and the uterine hypertrophy entry is “without causing uterine hypertrophy”.
As for `[F-].[Na+]` [sodium fluoride], in series [4], the bone growth quality result is on record as “the bone growth is irregular”, the fracture incidence entry is reported as “fracture incidence does not appear to be significantly lowered” and the side-effects result was “significant side-effects”. For the same compound, in series [4] (up to the value), the bone density increase was 8-10 % a year.

One may read the IC50 as the point on the concentration scale where inhibition reaches its midpoint. Low readings indicate greater potency, high ones weaker potency.
